For series [1] the following is noted: cited from earlier work.
For series [2], the system named is MV4-11 AML cells. The series can be described thus: Cell proliferation assay and combination index analysis, MV4-11. It is filed as cell-based, human. The following applies: single agent; depending on the cell type.
Source text: (§1) All data points are an average of triplicate samples.
as §1

Series [3] in a line: Body weight and overt toxicity in tumor-bearing mice. As to conditions: alone or in combination. How it is done: Female athymic nude mice weighing no less than 20-21 grams were inoculated subcutaneously in the left inguinal region of the thigh with 5×10^6 tumor cells in a delivery volume of 0.2 mL. For regression studies, the tumors were allowed to grow to a pre-determined size prior to initiation of dosing. […] Mice were dosed orally by gavage with vehicle (control group) or compound at various doses twice-daily (b.i.d.) during the week and once-daily (q.d.) on weekends. […] If tumors in the control mice reached ˜10% of body weight (˜2.0 grams), the study was to be terminated. […] During the study, tumor growth was measured three times-a-week (M, W, F) using electronic Vernier calipers. Tumor volume (mm^3) was calculated using the formula […], where L=length (mm) and W=width (shortest distance in mm) of the tumor. […]
Female athymic nude mice weighing no less than 20-21 grams were inoculated subcutaneously in the left inguinal region of the thigh with 5×10^6 tumor cells in a delivery volume of 0.2 mL. For regression studies, the tumors were allowed to grow to a pre-determined size prior to initiation of dosing. […] During the study, tumor growth was measured three times-a-week (M, W, F) using electronic Vernier calipers. Tumor volume (mm^3) was calculated using the formula […], where L=length (mm) and W=width (shortest distance in mm) of the tumor. […]

In series [4] the test system is MV4-11 tumor xenografts. The series is described as follows: MV4-11 human tumor xenograft regression model. It is filed as in vivo, nude mice. The following applies: Tipifarnib alone 50 mg/kg po. As for the experimental part: Female athymic nude mice (CD-1, nu/nu, 9-10 weeks old) were obtained from Charles River Laboratories (Wilmington, Mass.) and were maintained according to NIH standards. All mice were group housed (5 mice/cage) under clean-room conditions in sterile micro-isolator cages on a 12-hour light/dark cycle in a room maintained at 21-22° C. and 40-50% humidity. Mice were fed irradiated standard rodent diet and water ad libitum. All animals were housed in a Laboratory Animal Medicine facility that is fully accredited by the American Association for Assessment and Accreditation of Laboratory Animal Care (AAALAC). […]
The time course of the inhibitory effects of FLT3 inhibitor compounds on the growth of MV4-11 tumors is illustrated in FIG. 1. […] Percent inhibition (% I) of tumor growth was calculated versus tumor growth in the vehicle-treated Control group on the last study day.
Statistical significance versus Control was determined by Analysis of Variance (ANOVA) followed by Dunnett's t-test: * p<0.05; ** p<0.01.
(See FIG. 2). […] Percent Inhibition was calculated versus the mean tumor weight in the vehicle-treated control group. Statistical significance versus Control was determined by ANOVA followed by Dunnett's t-test: ** p<0.01. […]
(A xenograft is tissue or cells of one species grown in another, often human tumour cells in immunodeficient mice.)

Series [5] deals with T1, isolated kinase domain of the human FLT3 receptor (a.a. 571-993) (Homo sapiens, UniProt P36888).
T1 construct: human FLT3 receptor (a.a. 571-993)
T1 sequence (P36888 571-993): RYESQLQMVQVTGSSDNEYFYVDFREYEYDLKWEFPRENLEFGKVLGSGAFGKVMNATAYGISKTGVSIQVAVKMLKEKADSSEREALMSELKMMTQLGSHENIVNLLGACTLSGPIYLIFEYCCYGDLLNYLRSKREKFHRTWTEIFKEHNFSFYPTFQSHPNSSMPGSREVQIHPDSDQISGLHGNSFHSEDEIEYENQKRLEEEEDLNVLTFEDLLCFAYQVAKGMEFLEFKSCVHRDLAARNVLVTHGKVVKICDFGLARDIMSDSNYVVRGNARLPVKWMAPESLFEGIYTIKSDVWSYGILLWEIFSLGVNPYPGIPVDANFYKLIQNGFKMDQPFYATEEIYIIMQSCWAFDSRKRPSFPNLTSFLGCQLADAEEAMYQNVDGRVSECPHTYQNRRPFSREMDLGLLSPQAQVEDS
The series is described as follows: FLT3 fluorescence polarization kinase assay. It is filed as biochemical. The text has this:
The FLT3 FP assay utilizes the fluorescein-labeled phosphopeptide and the anti-phosphotyrosine antibody included in the Panvera Phospho-Tyrosine Kinase Kit (Green) supplied by Invitrogen. When FLT3 phosphorylates polyGlu4Tyr, the fluorescein-labeled phosphopeptide is displaced from the anti-phosphotyrosine antibody by the phosphorylated poly Glu4Tyr, thus decreasing the FP value. […] The kinase reaction is stopped with the addition of EDTA. The fluorescein-labeled phosphopeptide and the anti-phosphotyrosine antibody are added and incubated for 30 minutes at room temperature.
All data points are an average of triplicate samples. Inhibition and IC50 data analysis was done with GraphPad Prism using a non-linear regression fit with a multiparamater, sigmoidal dose-response (variable slope) equation.
Background: Polarisation of emitted light reports the rotation of a fluorescent probe.

Series [6] relates to MV4-11 cells. The series can be described thus: Inhibition of MV4-11 cell proliferation (CellTiterGlo, 72 h). As to conditions: Homo sapiens; 72 h growth inhibition. It is filed as cell-based. As for the experimental part:
To assess the cellular potency of the FLT3 inhibitors of Formula I′, FLT3 specific growth inhibition was measured in the leukemic cell line MV4-11 (ATCC Number: CRL-9591). […] MV4-11 cells cannot grow and survive without active FLT3ITD.
To measure proliferation inhibition by test compounds, the luciferase based CellTiterGlo reagent (Promega), which quantifies total cell number based on total cellular ATP concentration, was used. Cells are plated at 10,000 cells per well in 100 ul of in RPMI media containing penn/strep, 10% FBS and 1 ng/ml GM-CSF or 1 ng/ml IL-3 for MV4-11 and Baf3 cells respectively.
Compound dilutions or 0.1% DMSO (vehicle control) are added to cells and the cells are allowed to grow for 72 hours at standard cell growth conditions (37° C., 5% CO2). For activity measurements in MV4-11 cells grown in 50% plasma, cells were plated at 10,000 cells per well in a 1:1 mixture of growth media and human plasma (final volume of 100 μL). To measure total cell growth an equal volume of CellTiterGlo reagent was added to each well, according to the manufacturer's instructions, and luminescence was quantified. Total cell growth was quantified as the difference in luminescent counts (relative light units, RLU) of cell number at Day 0 compared to total cell number at Day 3 (72 hours of growth and/or compound treatment). One hundred percent inhibition of growth is defined as an RLU equivalent to the Day 0 reading. Zero percent inhibition was defined as the RLU signal for the DMSO vehicle control at Day 3 of growth. All data points are an average of triplicate samples. […] Inhibition and IC50 data analysis was done with GraphPad Prism using a non-linear regression fit with a multiparamater, sigmoidal dose-response (variable slope) equation.
MV4-11 cells express the FLT3 internal tandem duplication mutation, and thus are entirely dependent upon FLT3 activity for growth. […] In contrast, the Baf3 cell proliferation is driven by the cytokine IL-3 and thus are used as a non-specific toxicity control for test compounds.
A general note: Cellular ATP, detected with luciferase, serves as a proxy for viable cell number.

Where [7] appears, read: multicenter Phase II trial, relapsed AML.
Setting [8] is: patients with relapsed and refractory AML.

Each structure is given as a SMILES string. Entries after “also recorded” stand apart in the source; their conditions may differ. Where only a bound is given, the exact number is not on record here.

On to `Cn1cncc1C(N)(c1ccc(Cl)cc1)c1ccc2c(c1)c(-c1cccc(Cl)c1)cc(=O)n2C` (single isomer, unassigned; (+)) [Tipifarnib, (+)-6-[amino(4-chlorophenyl)(1-methyl-1H-imidazol-5-yl)methyl]-4-(3-chlorophenyl)-1-methyl-2(1H)-quinolinone], for which, in series [1] (setting [7]), the “>50% reduction in bone marrow blasts” value is given as 31 of 50 and the “complete responses (bone marrow blasts <5%)” value was 17 of 50. Also, in series [1] (setting [8]), the “patients achieving complete remission” value was 2 patients and the response rate is approximately 30%. Besides, the potency range result in series [2] is “high nanomolar to high picomolar range”. In series [3] (9-day treatment), the overt toxicity result is reported as “No overt toxicity”. Further, the overt toxicity entry in series [3] (16-day treatment) is “No overt toxicity”. Moreover, the “effect on tumor volume vs control” value in series [4] (9 days, Day 9) is given as “not significantly reduced; also recorded: ineffective”. For the same compound, the “effect on tumor growth” value in series [4] (16 days) was “ineffective”.
As for `CC(C)c1ccc(NC(=O)OC2CCN(c3ccnc4ccccc34)CC2)cc1` [Compound 10], the IC50 (as a rule, the concentration needed to halve the response being measured) turned out to be 26 nM in series [5] and 1100 nM in series [6].
Turning to `COc1cc2ncnc(N3CCC(OC(=O)Nc4ccc(OC5CCC5)nc4)CC3)c2cc1OC` [Compound 11, (6-Cyclobutoxy-pyridin-3-yl)-carbamic acid 1-(6,7-dimethoxy-quinazolin-4-yl)-piperidin-4-yl ester], the IC50 in series [5] was found to be 28 nM; in series [6], 71 nM.
In the same order, the values of `CC(C)c1ccc(NC(=O)OC2CCN(c3ncnc4ccccc34)C2)cc1` (stereo not shown) [Compound 24, (4-Isopropyl-phenyl)-carbamic acid 1-quinazolin-4-yl-pyrrolidin-3-yl ester] are 290 nM and 220 nM.
In the same order, the values of `COc1cc2ncnc(N3CC(CNC(=O)Nc4ccc(OC(C)C)cc4)C3)c2cc1OC` [Compound 25, 1-[1-(6,7-Dimethoxy-quinazolin-4-yl)-azetidin-3-ylmethyl]-3-(4-isopropoxy-phenyl)-urea] are 408 nM and more than 10000 nM.
In the same order, the values of `CC(C)c1ccc(NC(=O)NC2CCN(c3ccnc4ccccc34)C2)cc1` (stereo not shown) [Compound 27, (4-Isopropyl-phenyl)-3-(1-quinolin-4-yl)-pyrrolidin-3-yl-urea] are 457 nM and 5300 nM.
With `COc1cc2ncnc(N3CCC(C(=O)Nc4cccc(OC(C)C)c4)CC3)c2cc1OC` [Compound 30, 1(-6,7-Dimethoxy-quinazolin-4-yl)-piperidine-4-carboxylic acid (3-isopropoxy-phenyl)-amide], the IC50 in series [5] was determined as 563 nM; in series [6] it was 2310 nM.
Take `CC(C)c1ccc(NC(=O)OC2CCN(c3ccnc4ccccc34)C2)cc1` (stereo not shown) [Compound 34]: the values for the IC50 in series [5] and in series [6] were 1050 nM and 6400 nM, respectively.
In the same order, the values of `CC(C)Oc1ccc(NC(=O)NC2CCN(c3ccnc4ccccc34)C2)cc1` (stereo not shown) [Compound 38, (4-Isopropoxy-phenyl)-3-(1-quinolin-4-yl)-pyrrolidin-3-yl-urea] are 3150 nM and more than 3000 nM.
In the same order, the values of `CC(C)Oc1ccc(NC(=O)OC2CCN(c3ccnc4ccccc34)C2)cc1` (stereo not shown) [Compound 39] are 7140 nM and more than 10000 nM.
The compound `COc1cc2ncc(C#N)c(N3CCC(OC(=O)Nc4ccc(OC(C)C)cc4)CC3)c2cc1OC` [Compound 40, (4-Isopropoxy-phenyl)-carbamic acid 1-(3-cyano-6,7-dimethoxy-quinolin-4-yl)-piperidin-4-yl ester] showed an IC50 in series [5] of more than 10000 nM.

The record behind these values is US20060281771A1, “SYNERGISTIC MODULATION OF FLT3 KINASE USING AMINOQUINOLINE AND AMINOQUINAZOLINE KINASE MODULATORS” (priority 2005, published 2006).
